Like-named read-outs stand apart in the source and are kept apart here. Numbered stars: 1 amine (or outer) side, 2 acyl side, 3 side chain; on linkers, the order of the positions; unused ones are H or OH. Bridge positions count the residues as written; N and C are the ends. Square brackets hold non-standard residues; d marks the D form. Peptide text beside a SMILES is read from it. I, II: the chains in the order shown. Phe(4-COOH) = N[C@@H](Cc1ccc(C(=O)O)cc1)C(=O)O; Bip = N[C@@H](Cc1ccc(-c2ccccc2)cc1)C(=O)O; 1Nal = N[C@@H](Cc1cccc2ccccc12)C(=O)O; Diglycolyl = O=C(COCC(=O)[*:2])[*:1]; NMeR = CN[C@@H](CCCNC(=N)N)C(=O)O; β3hE = N[C@@H](CCC(=O)O)CC(=O)O; NMeK = CN[C@@H](CCCCN)C(=O)O; Pen = CC(C)(S)[C@H](N)C(=O)O; dNMeK = CN[C@H](CCCCN)C(=O)O
What was measured:
[1] = biological target: T1, rh integrin α4β7 (Homo sapiens, UniProt P13612+P26010); assay: α4β7-MAdCAM Competition ELISA; assay type: binding
T1 construct: purchased R&D Systems 5397-A30
In short: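 Recombinant human α4β7 was captured on nickel plates at 800 ng/well. Peptide in 3-fold serial dilution (final top 10 μM) competed with MAdCAM-1 (final 10 nM) for 1 h at room temperature in 50 mM Tris pH 7.6, 150 mM NaCl, 1 mM MnCl2 or MgCl2. Bound MAdCAM-1 was detected with anti-human IgG1-HRP/TMB at A450.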

[2] = Simulated Intestinal Fluid (SIF) Stability Assay; assay type: in vitro ADME, porcine; conditions: pig, simulated intestinal fluid (SIF) with 1% porcine pancreatin
In short: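 Peptides (22 μM final) incubated at 37 °C in FASSIF (pH 6.5) with 1% porcine pancreatin; aliquots quenched at various times and analyzed by LC-MS/MS against internal standard. Half-life from first-order exponential decay fit of percent remaining.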

[3] = biological target: α4β7 (Homo sapiens, UniProt P13612+P26010); assay: α4β7-MAdCAM Cell Adhesion Assay (RPMI 8866 human cells); assay type: cell-based; parameters: host or cells: RPMI 8866 human B lymphoblastoid cells
In short: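 Washed RPMI 8866 cells (200,000/well) in DMEM with 0.1% BSA, 10 mM HEPES pH 7, 1 mM MnCl2 adhered to rh MAdCAM-1/Fc-coated wells with serially diluted peptides, 30-45 min at 37 °C. After three washes, bound cells quantified by MTT, A570, cell-free background subtracted for dose response.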

[4] = Table 4-B, read-out: ELISA α4β7 IC50
[5] = pH 6.5, Table 4-C, t1/2, > means assay stopped at that time, read-out: SIF (porcine) Min
[6] = Table 4-B, read-out: Cell Adhesion α4β7 IC50
[7] = Table 3-B, Potency (α4β7), range classes, read-out: α4β7 ELISA IC50
[8] = pH 6.5, Table 3-B, > means experiment was stopped at that time and half life was not reached, read-out: Stabilty SIF t1/2
[9] = pH 6.5, Table 3-B, alone or in parentheses after >360, read-out: Stabilty SIF t1/2, in hr (converted)
[10] = Table 3-B, Potency (α4β7), range classes, read-out: α4β7 cell (Hu) IC50

α4β7, sequence (P13612 34-1032): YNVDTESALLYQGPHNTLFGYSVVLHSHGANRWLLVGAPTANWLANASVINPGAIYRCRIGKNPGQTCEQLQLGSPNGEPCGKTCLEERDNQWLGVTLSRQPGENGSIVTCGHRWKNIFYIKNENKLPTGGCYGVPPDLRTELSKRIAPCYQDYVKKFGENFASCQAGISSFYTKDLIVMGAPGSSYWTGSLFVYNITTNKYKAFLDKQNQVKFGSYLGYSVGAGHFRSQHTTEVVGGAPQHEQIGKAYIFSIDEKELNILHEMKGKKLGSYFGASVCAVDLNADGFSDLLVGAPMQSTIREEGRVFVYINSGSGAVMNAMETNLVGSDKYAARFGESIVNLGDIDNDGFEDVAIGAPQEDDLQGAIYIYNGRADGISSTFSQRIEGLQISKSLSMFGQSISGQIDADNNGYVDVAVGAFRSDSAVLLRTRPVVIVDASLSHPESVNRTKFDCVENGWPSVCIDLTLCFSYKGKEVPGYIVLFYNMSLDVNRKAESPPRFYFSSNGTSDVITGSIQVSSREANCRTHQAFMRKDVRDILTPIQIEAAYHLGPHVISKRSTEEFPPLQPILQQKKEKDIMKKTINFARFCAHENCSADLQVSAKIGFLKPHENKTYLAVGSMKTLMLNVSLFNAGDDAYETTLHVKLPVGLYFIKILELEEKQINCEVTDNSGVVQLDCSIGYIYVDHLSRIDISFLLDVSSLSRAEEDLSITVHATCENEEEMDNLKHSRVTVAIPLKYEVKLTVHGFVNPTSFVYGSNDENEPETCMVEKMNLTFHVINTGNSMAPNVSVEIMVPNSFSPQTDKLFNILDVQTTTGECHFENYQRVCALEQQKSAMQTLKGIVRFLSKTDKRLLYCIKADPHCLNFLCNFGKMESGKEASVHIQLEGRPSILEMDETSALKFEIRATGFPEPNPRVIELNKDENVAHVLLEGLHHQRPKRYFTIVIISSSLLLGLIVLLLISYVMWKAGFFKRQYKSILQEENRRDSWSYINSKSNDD
α4β7, sequence (P26010 20-798): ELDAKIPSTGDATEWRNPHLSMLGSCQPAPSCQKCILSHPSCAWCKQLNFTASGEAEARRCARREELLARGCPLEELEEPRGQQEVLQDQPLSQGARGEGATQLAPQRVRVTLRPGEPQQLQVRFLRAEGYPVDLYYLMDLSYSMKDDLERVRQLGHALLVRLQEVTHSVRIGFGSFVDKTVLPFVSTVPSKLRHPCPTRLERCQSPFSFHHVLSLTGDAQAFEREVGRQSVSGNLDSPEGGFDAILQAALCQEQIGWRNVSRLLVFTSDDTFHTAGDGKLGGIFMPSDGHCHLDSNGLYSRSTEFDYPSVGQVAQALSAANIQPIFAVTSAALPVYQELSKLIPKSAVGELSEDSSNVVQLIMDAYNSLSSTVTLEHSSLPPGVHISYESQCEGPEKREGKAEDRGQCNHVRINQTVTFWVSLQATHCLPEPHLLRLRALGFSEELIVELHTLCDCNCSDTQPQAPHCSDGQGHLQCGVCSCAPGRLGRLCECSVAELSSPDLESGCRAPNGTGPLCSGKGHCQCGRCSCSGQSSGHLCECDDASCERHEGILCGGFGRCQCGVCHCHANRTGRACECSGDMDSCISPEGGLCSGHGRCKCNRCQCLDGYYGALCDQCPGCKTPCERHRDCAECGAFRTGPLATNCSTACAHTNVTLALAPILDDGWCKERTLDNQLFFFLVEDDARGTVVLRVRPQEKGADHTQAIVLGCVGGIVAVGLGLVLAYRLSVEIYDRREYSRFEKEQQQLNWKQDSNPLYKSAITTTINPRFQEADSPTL
T1 sequence (P13612 34-977 limits assumed): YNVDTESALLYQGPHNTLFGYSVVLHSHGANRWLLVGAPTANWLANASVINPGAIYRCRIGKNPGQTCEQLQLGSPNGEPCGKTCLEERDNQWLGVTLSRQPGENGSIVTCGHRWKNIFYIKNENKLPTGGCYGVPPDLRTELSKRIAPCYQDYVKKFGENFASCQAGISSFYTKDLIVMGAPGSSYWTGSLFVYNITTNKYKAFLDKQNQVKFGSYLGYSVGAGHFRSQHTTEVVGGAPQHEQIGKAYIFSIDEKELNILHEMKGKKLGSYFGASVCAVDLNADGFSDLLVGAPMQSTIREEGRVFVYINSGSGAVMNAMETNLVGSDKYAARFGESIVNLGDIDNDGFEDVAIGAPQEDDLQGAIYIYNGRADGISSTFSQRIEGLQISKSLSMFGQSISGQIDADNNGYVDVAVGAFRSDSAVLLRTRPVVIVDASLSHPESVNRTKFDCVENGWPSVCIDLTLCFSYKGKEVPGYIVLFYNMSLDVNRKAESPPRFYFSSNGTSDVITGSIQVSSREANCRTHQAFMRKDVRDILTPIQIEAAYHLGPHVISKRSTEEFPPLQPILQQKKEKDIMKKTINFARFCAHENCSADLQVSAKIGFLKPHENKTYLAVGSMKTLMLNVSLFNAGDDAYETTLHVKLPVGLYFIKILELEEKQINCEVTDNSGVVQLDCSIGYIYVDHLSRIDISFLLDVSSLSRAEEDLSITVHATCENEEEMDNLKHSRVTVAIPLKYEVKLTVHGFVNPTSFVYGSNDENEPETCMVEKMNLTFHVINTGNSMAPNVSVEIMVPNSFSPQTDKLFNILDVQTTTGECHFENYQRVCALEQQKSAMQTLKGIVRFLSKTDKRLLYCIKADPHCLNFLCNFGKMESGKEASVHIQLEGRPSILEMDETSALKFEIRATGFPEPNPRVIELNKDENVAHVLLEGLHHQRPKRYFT
T1 sequence (P26010 20-723 limits assumed): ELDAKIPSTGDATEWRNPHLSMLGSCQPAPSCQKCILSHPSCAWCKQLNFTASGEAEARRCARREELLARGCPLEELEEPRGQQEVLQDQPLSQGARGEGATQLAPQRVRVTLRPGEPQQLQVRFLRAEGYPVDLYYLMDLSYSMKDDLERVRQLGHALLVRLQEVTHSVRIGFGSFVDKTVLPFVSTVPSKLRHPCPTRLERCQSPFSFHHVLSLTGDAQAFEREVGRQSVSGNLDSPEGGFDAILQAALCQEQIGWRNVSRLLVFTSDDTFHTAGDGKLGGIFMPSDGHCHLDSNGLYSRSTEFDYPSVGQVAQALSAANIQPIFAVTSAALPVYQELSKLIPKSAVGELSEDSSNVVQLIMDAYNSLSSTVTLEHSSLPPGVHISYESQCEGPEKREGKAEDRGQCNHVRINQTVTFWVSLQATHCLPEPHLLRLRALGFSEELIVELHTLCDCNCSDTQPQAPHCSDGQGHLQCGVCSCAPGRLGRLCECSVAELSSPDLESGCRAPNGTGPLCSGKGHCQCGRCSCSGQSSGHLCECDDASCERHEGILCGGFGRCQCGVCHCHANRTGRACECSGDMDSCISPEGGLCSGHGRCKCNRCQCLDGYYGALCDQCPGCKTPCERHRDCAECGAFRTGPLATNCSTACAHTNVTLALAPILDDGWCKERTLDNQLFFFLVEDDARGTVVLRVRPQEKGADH

## CC(=O)N[C@@H]1C(=O)N(C)[C@@H](CCCNC(=N)N)C(=O)N[C@@H](CO)C(=O)N[C@@H](CC(=O)O)C(=O)N[C@@H]([C@@H](C)O)C(=O)N[C@@H](CC(C)C)C(=O)N[C@H](C(=O)N[C@@H](Cc2c[nH]c3ccccc23)C(=O)N[C@@H](CCC(=O)O)CC(=O)N[C@H](CCCCNC(=O)COCC(=O)NCCCC[C@@H](NC(=O)C[C@H](CCC(=O)O)NC(=O)[C@H](Cc2c[nH]c3ccccc23)NC(=O)[C@H]2NC(=O)[C@H](CC(C)C)NC(=O)[C@H]([C@@H](C)O)NC(=O)[C@H](CC(=O)O)NC(=O)[C@H](CO)NC(=O)[C@H](CCCNC(=N)N)N(C)C(=O)[C@@H](NC(C)=O)C(C)(C)SSC2(C)C)C(N)=O)C(N)=O)C(C)(C)SSC1(C)C [compound 213, [Ac-Pen-(N-Me-Arg)-Ser-Asp-Thr-Leu-Pen-Trp-(β-homoGlu)-(D-Lys)-NH2]2-DIG] (I: Ac-[Pen][NMeR]SDTL[Pen]W[β3hE][dK]-NH2 / II: Ac-[Pen][NMeR]SDTL[Pen]W[β3hE][dK]-NH2; disulfide I:1-I:7, II:1-II:7; linker I:10-II:10 via Diglycolyl)
[1]; [4]
  IC50: 0.0047 µM
[2]; [5]
  half-life at 22 μM: > 3 h
[3]; [6]
  IC50: 0.012 µM

## CC(=O)N[C@H]1CSSC[C@@H](C(=O)NCC(=O)N[C@@H](CCC(=O)O)C(=O)N[C@@H](CCCCN)C(=O)O)NC(=O)[C@H](CC(C)C)NC(=O)[C@H]([C@@H](C)O)NC(=O)[C@H](CC(=O)O)NC(=O)[C@H](CO)NC(=O)[C@H](CCCNC(=N)N)N(C)C1=O [compound 199, Ac-C-N-Me-R-S-D-T-L-C-G-E-K-OH] (Ac-C[NMeR]SDTLCGEK-OH; disulfide 1-7)
[1]; [4]
  IC50: 0.058 µM
[2]; [5]
  half-life at 22 μM: 0.45 h
[3]; [6]
  IC50: 4.69 µM

## CC(=O)N[C@@H]1C(=O)N(C)[C@@H](CCCNC(=N)N)C(=O)N[C@@H](CO)C(=O)N[C@@H](CC(=O)O)C(=O)N[C@@H]([C@@H](C)O)C(=O)N[C@@H](CC(C)C)C(=O)N[C@H](C(=O)N[C@@H](Cc2ccc(C(=O)O)cc2)C(=O)N[C@@H](CCC(=O)O)C(=O)N[C@H](CCCCNC(=O)COCC(=O)NCCCC[C@@H](NC(=O)[C@H](CCC(=O)O)NC(=O)[C@H](Cc2ccc(C(=O)O)cc2)NC(=O)[C@H]2NC(=O)[C@H](CC(C)C)NC(=O)[C@H]([C@@H](C)O)NC(=O)[C@H](CC(=O)O)NC(=O)[C@H](CO)NC(=O)[C@H](CCCNC(=N)N)N(C)C(=O)[C@@H](NC(C)=O)C(C)(C)SSC2(C)C)C(N)=O)C(N)=O)C(C)(C)SSC1(C)C [compound 129] (I: Ac-[Pen][NMeR]SDTL[Pen][Phe(4-COOH)]E[dK]-NH2 / II: Ac-[Pen][NMeR]SDTL[Pen][Phe(4-COOH)]E[dK]-NH2; disulfide I:1-I:7, II:1-II:7; linker I:10-II:10 via Diglycolyl)
[1]; [7]
  IC50: < 0.01 µM
[2]; [8]
  half-life at 22 μM: > 6 h
[2]; [9]
  half-life at 22 μM: 13 h
[3]; [10]
  IC50: < 0.01 µM

## CC(=O)N[C@@H]1C(=O)N(C)[C@@H](CCCNC(=N)N)C(=O)N[C@@H](CO)C(=O)N[C@@H](CC(=O)O)C(=O)N[C@@H]([C@@H](C)O)C(=O)N[C@@H](CC(C)C)C(=O)N[C@H](C(=O)N[C@@H](Cc2ccc(-c3ccccc3)cc2)C(=O)N[C@@H](CCC(=O)O)CC(=O)N(C)[C@@H](CCCCNC(=O)COCC(=O)NCCCC[C@@H](C(N)=O)N(C)C(=O)C[C@H](CCC(=O)O)NC(=O)[C@H](Cc2ccc(-c3ccccc3)cc2)NC(=O)[C@H]2NC(=O)[C@H](CC(C)C)NC(=O)[C@H]([C@@H](C)O)NC(=O)[C@H](CC(=O)O)NC(=O)[C@H](CO)NC(=O)[C@H](CCCNC(=N)N)N(C)C(=O)[C@@H](NC(C)=O)C(C)(C)SSC2(C)C)C(N)=O)C(C)(C)SSC1(C)C [compound 150] (I: Ac-[Pen][NMeR]SDTL[Pen][Bip][β3hE][NMeK]-NH2 / II: Ac-[Pen][NMeR]SDTL[Pen][Bip][β3hE][NMeK]-NH2; disulfide I:1-I:7, II:1-II:7; linker I:10-II:10 via Diglycolyl)
[1]; [7]
  IC50: < 0.01 µM
[2]; [8]
  half-life at 22 μM: > 5 h
[3]; [10]
  IC50: < 0.01 µM

## CC(=O)N[C@H]1CSSC[C@@H](C(=O)NCC(=O)N[C@@H](CCC(=O)O)C(=O)N[C@@H](CCCCN)C(N)=O)NC(=O)[C@H](CC(C)C)NC(=O)[C@H]([C@@H](C)O)NC(=O)[C@H](CC(=O)O)NC(=O)[C@H](CO)NC(=O)[C@H](CCCNC(=N)N)NC1=O [compound 196, Ac-C-R-S-D-T-L-C-G-E-K-NH2] (Ac-CRSDTLCGEK-NH2; disulfide 1-7)
[1]; [4]
  IC50: 0.087 µM
[2]; [5]
  half-life at 22 μM: < 0.0667 h
[3]; [6]
  IC50: 6.66 µM

## CC(=O)N[C@@H]1C(=O)N(C)[C@@H](CCCNC(=N)N)C(=O)N[C@@H](CO)C(=O)N[C@@H](CC(=O)O)C(=O)N[C@@H]([C@@H](C)O)C(=O)N[C@@H](CC(C)C)C(=O)N[C@H](C(=O)N[C@@H](Cc2ccc(C(=O)O)cc2)C(=O)N[C@@H](CCC(=O)O)CC(=O)N[C@H](CCCCNC(=O)COCC(=O)NCCCC[C@@H](NC(=O)C[C@H](CCC(=O)O)NC(=O)[C@H](Cc2ccc(C(=O)O)cc2)NC(=O)[C@H]2NC(=O)[C@H](CC(C)C)NC(=O)[C@H]([C@@H](C)O)NC(=O)[C@H](CC(=O)O)NC(=O)[C@H](CO)NC(=O)[C@H](CCCNC(=N)N)N(C)C(=O)[C@@H](NC(C)=O)C(C)(C)SSC2(C)C)C(N)=O)C(N)=O)C(C)(C)SSC1(C)C [compound 130] (I: Ac-[Pen][NMeR]SDTL[Pen][Phe(4-COOH)][β3hE][dK]-NH2 / II: Ac-[Pen][NMeR]SDTL[Pen][Phe(4-COOH)][β3hE][dK]-NH2; disulfide I:1-I:7, II:1-II:7; linker I:10-II:10 via Diglycolyl)
[1]; [7]
  IC50: < 0.01 µM
[2]; [8]
  half-life at 22 μM: > 6 h
[2]; [9]
  half-life at 22 μM: 16 h
[3]; [10]
  IC50: < 0.01 µM

## CC(=O)N[C@@H]1C(=O)N(C)[C@@H](CCCNC(=N)N)C(=O)N[C@@H](CO)C(=O)N[C@@H](CC(=O)O)C(=O)N[C@@H]([C@@H](C)O)C(=O)N[C@@H](CC(C)C)C(=O)N[C@H](C(=O)N[C@@H](Cc2cccc3ccccc23)C(=O)N[C@@H](CCC(=O)O)C(=O)N(C)[C@H](CCCCNC(=O)COCC(=O)NCCCC[C@H](C(N)=O)N(C)C(=O)[C@H](CCC(=O)O)NC(=O)[C@H](Cc2cccc3ccccc23)NC(=O)[C@H]2NC(=O)[C@H](CC(C)C)NC(=O)[C@H]([C@@H](C)O)NC(=O)[C@H](CC(=O)O)NC(=O)[C@H](CO)NC(=O)[C@H](CCCNC(=N)N)N(C)C(=O)[C@@H](NC(C)=O)C(C)(C)SSC2(C)C)C(N)=O)C(C)(C)SSC1(C)C [compound 44] (I: Ac-[Pen][NMeR]SDTL[Pen][1Nal]E[dNMeK]-NH2 / II: Ac-[Pen][NMeR]SDTL[Pen][1Nal]E[dNMeK]-NH2; disulfide I:1-I:7, II:1-II:7; linker I:10-II:10 via Diglycolyl)
[1]; [7]
  IC50: < 0.01 µM
[2]; [8]
  half-life at 22 μM: > 3 h
[3]; [10]
  IC50: < 0.01 µM
